Counter-ions that a name gives are not always drawn.
What follows are compounds tested on T1, 1N4R p-tau (assay: p-tau aggregation modulator screen of 1280-compound library (ThS fluorescence net change over 16 h)). Conditions: not given.
T1 construct: made in house; host or cells: E. coli (PIMAX system)
Format: biochemical
Design: key to PTAI>2SD: *: PTAI>2SD; key to PTAI>3SD: *: PTAI>3SD
`CN1[C@@H]2CC[C@H]1C[C@@H](OC(=O)[C@H](CO)c1ccccc1)C2` [Hyoscyamine (L)] was tested, and the ThS net change was 434. `CCN(C)C(=O)Oc1cccc([C@H](C)N(C)C)c1` [Rivastigmine] gave a ThS net change of 462. In the case of `C[C@]12CCC3[C@@H](CC[C@@H]4C[C@H](O)CC[C@]34C)[C@@H]1CCC2=O` (stereo partly drawn) [3-alpha-Hydroxy-5-beta-androstan-17-one], the ThS net change is reported as 426. In the case of `O=C(c1ccc(OCCN2CCCCC2)cc1)c1c(-c2ccc(O)cc2)sc2cc(O)ccc12` [Raloxifene hydrochloride], the “PTAI>2SD” value is reported as “*” and the ThS net change is reported as 133. Compound `NCCCC(O)(P(=O)(O)O)P(=O)(O)O` [Alendronate sodium] has a ThS net change of 381. In the case of `COc1ccc(CCN(C)CCCC(C#N)(c2ccc(OC)c(OC)c2)C(C)C)cc1OC` (stereo not drawn) [Verapamil hydrochloride], the ThS net change is reported as 325. Compound `O=C(Oc1cccc2cccnc12)c1ccccc1` [Benzoxiquine] has a ThS net change of 287. With `CC(=O)N(O)CCCCCNC(=O)CCC(=O)N(O)CCCCCNC(=O)CCC(=O)N(O)CCCCCN` [Deferoxamine mesylate] the ThS net change was 439. `Cc1nc2n(c(=O)c1CCN1CCC(c3noc4cc(F)ccc34)CC1)CCCC2` [Risperidone] was tested, and the ThS net change was 447.

Same assay, conditions: 1280-compound library screen; ThS fluorescence net change over 16 h
`CCCCNC(=O)NS(=O)(=O)c1ccc(C)cc1` [Tolbutamide] was tested, and the ThS net change was 392. In the case of `COc1cc2nc(N(C)CCCNC(=O)C3CCCO3)nc(N)c2cc1OC` (stereo not drawn) [Alfuzosin hydrochloride], the ThS net change is reported as 391. `Cc1nnc(SCC2=C(C(=O)O)N3C(=O)[C@@H](NC(=O)Cn4cnnn4)[C@H]3SC2)s1` [Cefazolin sodium salt] gave a ThS net change of 381. For `CC1(C)S[C@@H]2[C@H](NC(=O)[C@H](N)c3ccc(O)cc3)C(=O)N2[C@H]1C(=O)O` [Amoxicillin], the ThS net change was 388. `CC(Oc1c(Cl)cccc1Cl)C1=NCCN1` (stereo not drawn) [Lofexidine] gave a ThS net change of 408. `CS(=O)(=O)c1ccc([C@@H](O)[C@@H](CO)NC(=O)C(Cl)Cl)cc1` [Thiamphenicol] gave a ThS net change of 380. Compound `CNS(=O)(=O)Cc1ccc2[nH]cc(CCN(C)C)c2c1` [Sumatriptan succinate] has a ThS net change of 393. `CCN1CCCC(OC(=O)C(c2ccccc2)c2ccccc2)C1` (stereo not drawn) [Piperidolate hydrochloride] gave a ThS net change of 406. For `Cl.c1cnc(N2CCN(Cc3ccc4c(c3)OCO4)CC2)nc1` [Piribedil hydrochloride], the ThS net change was 392. `CC1(C)O[C@@H]2[C@@H](CO[C@@]3(COS(N)(=O)=O)OC(C)(C)O[C@@H]23)O1` [Topiramate] was tested, and the ThS net change was 392. For `Nc1nnc(-c2cccc(Cl)c2Cl)c(N)n1` [Lamotrigine], the ThS net change was 389. Compound `CC(=O)OCC(=O)[C@@]1(O)CC[C@H]2[C@@H]3CCC4=CC(=O)CC[C@]4(C)[C@@]3(F)[C@@H](O)C[C@@]21C` [Fludrocortisone acetate] has a ThS net change of 380. `CN(c1nccc(=O)[nH]1)C1CCN(c2nc3ccccc3n2Cc2ccc(F)cc2)CC1` [Mizolastine] gave a ThS net change of 390. For `Clc1ccc2nsnc2c1NC1=NCCN1` [Tizanidine HCl], the ThS net change was 386. `Cc1ncc(C[n+]2csc(CCO)c2C)c(N)n1` [Thiamine hydrochloride] was tested, and the ThS net change was 383. `CN(C)CCOC1=Cc2ccccc2Sc2ccc(Cl)cc21` [Zotepine] showed a ThS net change of 388. For `Cl.O=C1OC(CN2CCOCC2)CN1/N=C/c1ccc([N+](=O)[O-])o1` (stereo not drawn) [Furaltadone hydrochloride], the ThS net change was 385. In the case of `Cc1noc(NS(=O)(=O)c2ccc(N)cc2)c1C` [Sulfisoxazole], the ThS net change is reported as 404.

Same assay, conditions: 1280-compound library screen; […]
`CC[C@@H]1C(=O)OC[C@@H]1Cc1cncn1C` [Pilocarpine nitrate] was tested, and the ThS net change was 378. Work on `Nc1ccc(S(=O)(=O)[N-]c2cnc3ccccc3n2)cc1.[Na+]` [Sulfaquinoxaline sodium salt] yielded a ThS net change of 398. For `NC(=O)C(c1ccccc1)(c1ccccc1)[C@@H]1CCN(CCc2ccc3c(c2)CCO3)C1` [Darifenacin hydrobromide], the ThS net change was 384. `Cc1ccsc1/C=C/C1=NCCCN1C` [Morantel tartrate] was tested, and the ThS net change was 398. With `N[C@@H](C(=O)N[C@@H]1C(=O)N2C(C(=O)O)=C(Cl)CS[C@H]12)c1ccccc1.O` [Cefaclor hydrate] the ThS net change was 392. Work on `C(#CCN1CCCC1)CN1CCCC1.Cl.Cl` [Tremorine dihydrochloride] yielded a ThS net change of 391.

Same assay, conditions: flag: p-tau aggregation inhibitor, ThS net change more than 2 SD from mean
In the case of `COC(=O)Nc1nc2ccc(Sc3ccccc3)cc2[nH]1` [Fenbendazole], the “PTAI>2SD” value is reported as “*”.

Same assay, conditions: flag: p-tau aggregation inhibitor, ThS net change more than 3 SD from mean
For `Cc1cc(/C=C/c2ccc3cc(N(C)C)ccc3[n+]2C)c(C)n1-c1ccccc1` [Pyrvinium pamoate], the “PTAI>3SD” value was “*”.

Same assay, conditions: library screen, ThS fluorescence net change over 16 h with p-tau
With `COC(=O)Nc1nc2ccc(Sc3ccccc3)cc2[nH]1` [Fenbendazole] the ThS net change was 148. Work on `Oc1ccc(C2CNCCc3c2cc(O)c(O)c3Cl)cc1` (stereo not drawn) [Fenoldopam] yielded a ThS net change of 310. With `COc1ccc(C(=O)c2ccccc2O)c(O)c1` [Dioxybenzone] the ThS net change was 296. Work on `Cc1cc(/C=C/c2ccc3cc(N(C)C)ccc3[n+]2C)c(C)n1-c1ccccc1` [Pyrvinium pamoate] yielded a ThS net change of -379. With `Cc1ccc(C(=O)c2cc(O)c(O)c([N+](=O)[O-])c2)cc1` [Tolcapone] the ThS net change was 214.

Same assay, conditions: p-tau aggregation modulator screen of 1280-compound library; ThS fluorescence net change
`Fc1ccc(C(c2ccc(F)cc2)N2CCN(C/C=C/c3ccccc3)CC2)cc1` [Flunarizine dihydrochloride] was tested, and the ThS net change was 370. `Nc1nc(NC2CC2)c2ncn([C@H]3C=C[C@@H](CO)C3)c2n1` [Abacavir Sulfate] showed a ThS net change of 363. Compound `NC(=O)N1c2ccccc2CC(=O)c2ccccc21` [Oxcarbazepine] has a ThS net change of 376. In the case of `CN/C(=N/CCSCc1nc[nH]c1C)NC#N` [Cimetidine], the ThS net change is reported as 356. With `COc1cc(Cc2cnc(N)nc2N)cc(OC)c1OC` [Trimethoprim] the ThS net change was 360. With `NC[C@@H]1O[C@H](O[C@H]2[C@@H](O)[C@H](O[C@@H]3[C@@H](O)[C@H](N)C[C@H](N)[C@H]3O[C@H]3O[C@H](CN)[C@@H](O)[C@H](O)[C@H]3N)O[C@@H]2CO)[C@H](N)[C@@H](O)[C@@H]1O.O=S(=O)(O)O` [Neomycin sulfate] the ThS net change was 340. `NCCc1cc[nH]n1` [Betazole hydrochloride] was tested, and the ThS net change was 333. With `Cc1cc(NS(=O)(=O)c2ccc(N)cc2)no1` [Sulfamethoxazole] the ThS net change was 376. In the case of `OC(CCCN1CCCCC1)(c1ccccc1)c1ccccc1` [Diphenidol hydrochloride], the ThS net change is reported as 345. With `OCCN1CCN(CCCN2c3ccccc3Sc3ccc(Cl)cc32)CC1` [Perphenazine] the ThS net change was 328. For `CN1CCN(C2=Nc3ccccc3Oc3ccc(Cl)cc32)CC1` [Loxapine succinate], the ThS net change was 358. Work on `CCC[C@@H]1C[C@@H](C(=O)N[C@@H]([C@H]2O[C@H](SC)[C@H](O)[C@@H](O)[C@H]2O)[C@@H](C)O)N(C)C1` [Lincomycin hydrochloride] yielded a ThS net change of 367. In the case of `CN1C(C)(C)CCCC1(C)C` [Pempidine tartrate], the ThS net change is reported as 362. `CC(=O)N(CC(C)C(=O)O)c1c(I)cc(I)c(N)c1I` (stereo not drawn) [Iocetamic acid] was tested, and the ThS net change was 365.

Same assay, conditions: p-tau aggregation modulator screen of 1280-compound library; […]
With `CC(C(=O)[O-])c1cccc(Oc2ccccc2)c1.CC(C(=O)[O-])c1cccc(Oc2ccccc2)c1.O.O.[Ca+2]` (stereo not drawn) [Fenoprofen calcium salt dihydrate] the ThS net change was 366. Compound `C[C@]12N[C@H](Cc3ccccc31)c1ccccc12` [Dizocilpine maleate] has a ThS net change of 349. Work on `O=P(O)(O)C(Cl)(Cl)P(=O)(O)O` [Clodronate] yielded a ThS net change of 370. Compound `C[C@@]12N[C@@H](Cc3ccccc31)c1ccccc12.O=C(O)/C=C\C(=O)O` [(-)-MK 801 hydrogen maleate] has a ThS net change of 354. `CCC(C)(CN(C)C)OC(=O)c1ccccc1.Cl` (stereo not drawn) [Amyleine hydrochloride] was tested, and the ThS net change was 365.

Same assay, conditions: p-tau aggregation modulator screen of the compound library, ThS fluorescence net change
`O=C(C1CCCCC1)N1CC(=O)N2CCc3ccccc3C2C1` (stereo not drawn) [Praziquantel] was tested, and the ThS net change was 418. With `Cc1ccc(-c2cc(C(F)(F)F)nn2-c2ccc(S(N)(=O)=O)cc2)cc1` [Celecoxib] the ThS net change was 429. `CC(=O)[C@H]1CC[C@H]2[C@@H]3CC=C4C[C@@H](O)CC[C@]4(C)[C@H]3CC[C@]12C` [Pregnenolone] was tested, and the ThS net change was 482. With `C[C@]12C[C@H](O)[C@H]3[C@@H](CCC4=CC(=O)CC[C@@]43C)[C@@H]1CC[C@@H]2C(=O)CO` [Corticosterone] the ThS net change was 416. With `CN(C)CCN(Cc1ccccc1)c1ccccn1` [Tripelennamine hydrochloride] the ThS net change was 414. With `CC(=O)SCC(Cc1ccccc1)C(=O)NCC(=O)OCc1ccccc1` (stereo not drawn) [Racecadotril] the ThS net change was 462. In the case of `CCCCc1oc2ccccc2c1C(=O)c1cc(I)c(OCCN(CC)CC)c(I)c1` [Amiodarone hydrochloride], the ThS net change is reported as 436. In the case of `CO[C@@]1(NC(=O)C(C(=O)O)c2ccc(O)cc2)C(=O)N2C(C(=O)O)=C(CSc3nnnn3C)CO[C@@H]21` (stereo partly drawn) [Moxalactam disodium salt], the ThS net change is reported as 419. In the case of `N=C(N)c1ccc(OCCCCCOc2ccc(C(=N)N)cc2)cc1` [Pentamidine isethionate], the ThS net change is reported as 479. `Cc1nc2ccc(CN(C)c3ccc(C(=O)N[C@@H](CCC(=O)O)C(=O)O)s3)cc2c(=O)[nH]1` [Raltitrexed] showed a ThS net change of 443. For `CCCCC(=O)N(Cc1ccc(-c2ccccc2-c2nnn[nH]2)cc1)[C@H](C(=O)O)C(C)C` [Valsartan], the ThS net change was 417. In the case of `COC(=O)[C@@H]1[C@H]2C[C@H]3c4[nH]c5ccccc5c4CCN3C[C@@H]2CC[C@@H]1O` [Yohimbine hydrochloride], the ThS net change is reported as 418. `Cc1c(C)c2c(c(C)c1O)CCC(C)(C(=O)O)O2` (stereo not drawn) [Trolox] gave a ThS net change of 413. For `O=C1Nc2ccc(Cl)cc2[C@@](C#CC2CC2)(C(F)(F)F)O1` [Efavirenz], the ThS net change was 436. `CCCNC(=O)NS(=O)(=O)c1ccc(Cl)cc1` [Chlorpropamide] gave a ThS net change of 425. `CC(C)(Oc1ccc(C2CC2(Cl)Cl)cc1)C(=O)O` (stereo not drawn) [Ciprofibrate] was tested, and the ThS net change was 448. `NC(=O)c1ncn([C@@H]2O[C@H](CO)[C@@H](O)[C@H]2O)n1` [Ribavirin] showed a ThS net change of 458. With `CCCCC1=NC2(CCCC2)C(=O)N1Cc1ccc(-c2ccccc2-c2nnn[nH]2)cc1` [Irbesartan] the ThS net change was 454.

Source: PMC7539012, “Hyperphosphorylated tau aggregation and cytotoxicity modulators screen identified prescription drugs linked to Alzheimer's disease and cognitive functions” (Scientific Reports, 2020)
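Throughout, for ThS net change: 30 µM compound with 6 µM p-tau over 16 h.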
